# Measured values from patent publication US11963960B2 (Flash Therapeutics, LLC, priority 2020, dated 2024).
# Molecular target: N-terminally GST-tagged HCK (75-526) (Homo sapiens (Human), UniProt P08631)
# Test: HCK Kinase Assay (ProFluor Src-Family Kinase Assay)
# Assay type: biochemical
# Settings: HCK inhibitory activity, 50 μM ATP; read-out: HCK Activity
# How it was run: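 ProFluor Src-family format: after the kinase reaction, protease solution was added for 60 min at room temperature (22-25° C), then stabilizer.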
# N-terminally GST-tagged HCK (75-526), sequence (P08631 75-526): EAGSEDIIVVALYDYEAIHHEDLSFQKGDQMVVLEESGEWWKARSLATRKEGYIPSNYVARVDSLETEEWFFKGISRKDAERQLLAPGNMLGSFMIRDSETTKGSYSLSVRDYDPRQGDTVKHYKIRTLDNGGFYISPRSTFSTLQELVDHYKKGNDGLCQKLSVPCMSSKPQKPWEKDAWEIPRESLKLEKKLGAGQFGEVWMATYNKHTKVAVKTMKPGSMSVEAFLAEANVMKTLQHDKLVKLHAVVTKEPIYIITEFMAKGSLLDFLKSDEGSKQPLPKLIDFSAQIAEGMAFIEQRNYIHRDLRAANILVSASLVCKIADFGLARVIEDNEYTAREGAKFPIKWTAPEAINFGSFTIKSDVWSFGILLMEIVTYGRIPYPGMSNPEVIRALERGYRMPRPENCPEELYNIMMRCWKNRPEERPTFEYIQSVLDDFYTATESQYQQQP
row,IC50 [nM],SMILES
1,50 to 250,"Nc1ncnc2c1c(-c1ccc(Oc3ccccc3)cc1)cn2C1CCC2(CC1)NC(=O)N(c1ccncc1)C2=O (stereo not drawn) [Example 93, 8-(4-Amino-5-(4-phenoxyphenyl)-7H-pyrrolo[2,3-d]pyrimidin-7-yl)-3-(pyridin-4-yl)-1,3-diazaspiro [4.5] decane-2,4-dione]"
2,< 50,"NC(=O)C=C1CCC(n2cc(-c3ccc(Oc4ccccc4)cc3)c3c(N)ncnc32)CC1 (stereo not drawn) [Example 94, 2-(4-(4-Amino-5-(4-phenoxyphenyl)-7H-pyrrolo[2,3-d]pyrimidin-7-yl)cyclohexylidene)acetamide]"
3,250 to 10000,"COC(=O)CC1(N)CCC(n2cc(-c3ccc(Oc4ccccc4)cc3)c3c(N)ncnc32)CC1 (stereo not drawn) [Example 95, Methyl 2-(1-amino-4-(4-amino-5-(4-phenoxyphenyl)-7H-pyrrolo[2,3-d]pyrimidin-7-yl)cyclohexyl) acetate]"
4,< 50,"NC(=O)CC1(N)CCC(n2cc(-c3ccc(Oc4ccccc4)cc3)c3c(N)ncnc32)CC1 (stereo not drawn) [Example 96, 2-(1-Amino-4-(4-amino-5-(4-phenoxyphenyl)-7H-pyrrolo[2,3-d]pyrimidin-7-yl)cyclohexyl)acetamide]"
5,< 50,"CNC(=O)C=C1CCC(n2cc(-c3ccc(Oc4ccccc4)cc3)c3c(N)ncnc32)CC1 (stereo not drawn) [Example 97, 2-(4-(4-amino-5-(4-phenoxyphenyl)-7H-pyrrolo[2,3-d]pyrimidin-7-yl)cyclohexylidene)-N-methylacetamide]"
6,< 50,"CNC(=O)CC1(NC)CCC(n2cc(-c3ccc(Oc4ccccc4)cc3)c3c(N)ncnc32)CC1 (stereo not drawn) [Example 98, 2-(4-(4-amino-5-(4-phenoxyphenyl)-7H-pyrrolo[2,3-d]pyrimidin-7-yl)-1-(methylamino)cyclohexyl)-N-methylacetamide]"
7,< 50,"CCOC(=O)C1CC12CCC(n1cc(-c3ccc(Oc4ccccc4)cc3)c3c(N)ncnc31)CC2 (stereo not drawn) [Example 99, Ethyl 6-(4-amino-5-(4-phenoxyphenyl)-7H-pyrrolo[2,3-d]pyrimidin-7-yl)spiro[2.5]octane-1-carboxylate]"
8,50 to 250,"CN1CCN(CC2(O)CCC(n3cc(-c4ccc(Oc5ccccc5)cc4)c4c(N)ncnc43)CC2)CC1 (stereo not drawn) [Example 100, 4-(4-Amino-5-(4-phenoxyphenyl)-7H-pyrrolo[2,3-d]pyrimidin-7-yl)-1-((4-methylpiperazin-1-yl)methyl)cyclohexanol]"
9,50 to 250,"Nc1ncnc2c1c(-c1ccc(Oc3ccccc3)cc1)cn2C1CCC(O)(Cn2ccnc2)CC1 (stereo not drawn) [Example 101, 1-((1H-Imidazol-1-yl)methyl)-4-(4-amino-5-(4-phenoxyphenyl)-7H-pyrrolo[2,3-d]pyrimidin-7-yl)cyclohexanol]"
10,< 50,"Nc1ncnc2c1c(-c1ccc(Oc3ccccc3)cc1)cn2C1CCC(O)(Cn2cnnn2)CC1 (stereo not drawn) [Example 102, 1-((1H-Tetrazol-1-yl)methyl)-4-(4-amino-5-(4-phenoxyphenyl)-7H-pyrrolo[2,3-d]pyrimidin-7-yl)cyclohexanol]"
11,< 50,"CN1CCN([C@H]2CC[C@H](n3cc(-c4ccc(Oc5ccccc5)cc4F)c4c(N)ncnc43)CC2)CC1 [Example 105, 5-(2-fluoro-4-phenoxyphenyl)-7-((trans)-4-(4-methylpiperazin-1-yl)cyclohexyl)-7H-pyrrolo[2,3-d]pyrimidin-4-amine]"
12,< 50,"CN1CCN([C@H]2CC[C@H](n3cc(-c4ccc(Oc5ccccc5)cc4Cl)c4c(N)ncnc43)CC2)CC1 [Example 106, 5-(2-chloro-4-phenoxyphenyl)-7-((trans)-4-(4-methylpiperazin-1-yl)cyclohexyl)-7H-pyrrolo[2,3-d]pyrimidin-4-amine]"
13,< 50,"CN1CCN([C@H]2CC[C@H](n3nc(-c4c(F)cc(Oc5ccccc5)cc4F)c4c(N)ncnc43)CC2)CC1 [Example 107, 3-(2,6-difluoro-4-phenoxyphenyl)-1-((trans)-4-(4-methylpiperazin-1-yl)cyclohexyl)-1H-pyrazolo[3,4-d]pyrimidin-4-amine]"
14,< 50,"CN1CCN([C@H]2CC[C@H](n3cc(-c4ccc(Oc5ccccc5F)cc4)c4c(N)ncnc43)CC2)CC1 [Example 108, 5-(4-(2-fluorophenoxy)phenyl)-7-((trans)-4-(4-methylpiperazin-1-yl)cyclohexyl)-7H-pyrrolo[2,3-d]pyrimidin-4-amine]"

# Second part, the molecule before the results:
row,SMILES,IC50 [nM]
1,"Nc1ncn([C@H]2CC[C@@H](n3cc(-c4ccc(Oc5ccccc5)cc4)c4c(N)ncnc43)CC2)n1 [Example 82, 7-((cis)-4-(3-amino-1H-1,2,4-triazol-1-yl)cyclohexyl)-5-(4-phenoxyphenyl)-7H-pyrrolo[2,3-d]pyrimidin-4-amine]",< 50
2,"Nc1ncnc2c1c(-c1ccc(Oc3ccccc3)cc1)cn2[C@H]1CC[C@H](NC2CNC2)CC1 [Example 83, 7-((trans)-4-(azetidin-3-ylamino)cyclohexyl)-5-(4-phenoxyphenyl)-7H-pyrrolo[2,3-d]pyrimidin-4-amine]",50 to 250
3,"Nc1ncnc2c1c(-c1ccc(Oc3ccccc3)cc1)cn2[C@H]1CC[C@@H](NC2CNC2)CC1 [Example 84, 7-((cis)-4-(azetidin-3-ylamino)cyclohexyl)-5-(4-phenoxyphenyl)-7H-pyrrolo[2,3-d]pyrimidin-4-amine]",50 to 250
4,"Nc1ncnc2c1c(-c1ccc(Oc3ccccc3)cc1)cn2[C@H]1CC[C@H](NCc2n[nH]c(=O)[nH]2)CC1 [Example 85, 3-((((trans)-4-(4-amino-5-(4-phenoxyphenyl)-7H-pyrrolo[2,3-d]pyrimidin-7-yl)cyclohexyl)amino)methyl)-1H-1,2,4-triazol-5(4H)-one]",< 50
5,"CN1CCN([C@H]2CC[C@H](n3c(Br)c(-c4ccc(Oc5ccccc5)cc4)c4c(N)ncnc43)CC2)CC1 [Example 86, 6-Bromo-7-((trans)-4-(4-methylpiperazin-1-yl)cyclohexyl)-5-(4-phenoxyphenyl)-7H-pyrrolo[2,3-d]pyrimidin-4-amine]",50 to 250
6,"CN1CCN([C@H]2CC[C@H](n3cc(-c4ccc(Oc5ccccc5)cc4)c4c(O)ncnc43)CC2)CC1 [Example 87, 7-((trans)-4-(4-Methylpiperazin-1-yl)cyclohexyl)-5-(4-phenoxyphenyl)-7H-pyrrolo[2,3-d]pyrimidin-4-ol]",< 50
7,"CC(C)(O)CN1CCN([C@H]2CC[C@H](n3cc(-c4ccc(Oc5ccccc5)cc4)c4c(N)ncnc43)CC2)CC1 [Example 89, 1-(4-((trans)-4-(4-amino-5-(4-phenoxyphenyl)-7H-pyrrolo[2,3-d]pyrimidin-7-yl)cyclohexyl)piperazin-1-yl)-2-methylpropan-2-ol]",< 50
8,"Nc1ncnc2c1c(-c1ccc(Oc3ccccc3)cc1)cn2[C@H]1CC[C@H](N2CCNCC2=O)CC1 [Example 90, 1-((trans)-4-(4-Amino-5-(4-phenoxyphenyl)-7H-pyrrolo[2,3-d]pyrimidin-7-yl)cyclohexyl)piperazin-2-one]",< 50
9,"Nc1ncnc2c1c(-c1ccc(Oc3ccccc3)cc1)cn2[C@H]1CC[C@@H](N2CCNCC2=O)CC1 [Example 91, 1-((cis)-4-(4-Amino-5-(4-phenoxyphenyl)-7H-pyrrolo[2,3-d]pyrimidin-7-yl)cyclohexyl)piperazin-2-one]",50 to 250
10,"Nc1ncnc2c1c(-c1ccc(Oc3ccccc3)cc1)cn2C1CCC2(CC1)OCC(N)CO2 (stereo not drawn) [Example 92, 7-(3-Amino-1,5-dioxaspiro[5.5]undecan-9-yl)-5-(4-phenoxyphenyl)-7H-pyrrolo [2,3-d]pyrimidin-4-amine]",50 to 250
